# From ChEMBL document CHEMBL1201862, “PubChem BioAssay data set” (2004)
# Activity calls are given as the source filed them. Cut-off read from the data, not from the text of the source, for most assays here: actives have a measured EC50 and inactives only a lower limit.
# Key:
# [1] = target: T1, Zinc finger protein mex-5 (Caenorhabditis elegans, UniProt Q9XUB2); assay: potency of MEX-5 RNA-binding blockers – biochemical, C. elegans, fluorescence polarization, dose response (AID 1960)
# T1 sequence (Q9XUB2 whole entry): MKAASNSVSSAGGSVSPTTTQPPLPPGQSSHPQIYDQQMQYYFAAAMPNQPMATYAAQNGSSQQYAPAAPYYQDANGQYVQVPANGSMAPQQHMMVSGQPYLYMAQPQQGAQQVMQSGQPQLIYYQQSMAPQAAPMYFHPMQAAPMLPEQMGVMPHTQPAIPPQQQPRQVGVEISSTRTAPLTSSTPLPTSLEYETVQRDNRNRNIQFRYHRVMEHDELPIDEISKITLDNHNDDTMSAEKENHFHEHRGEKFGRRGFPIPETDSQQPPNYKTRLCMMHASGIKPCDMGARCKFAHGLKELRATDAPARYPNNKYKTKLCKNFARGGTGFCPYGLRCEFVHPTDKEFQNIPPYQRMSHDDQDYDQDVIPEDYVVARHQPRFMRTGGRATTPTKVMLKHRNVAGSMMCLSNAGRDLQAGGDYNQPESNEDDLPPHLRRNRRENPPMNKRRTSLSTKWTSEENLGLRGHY
# [2] = target: T2, RNA-binding protein pos-1 (Caenorhabditis elegans, UniProt G5EF15); assay: disruptors of C. elegans POS-1 RNA interaction – biochemical, fluorescence polarization, dose response (AID 1964);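 note: purified POS-1 fused to maltose binding protein made in E. coli; potency of compounds blocking POS-1 binding to fluorescent RNA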
# T2 sequence (G5EF15 whole entry): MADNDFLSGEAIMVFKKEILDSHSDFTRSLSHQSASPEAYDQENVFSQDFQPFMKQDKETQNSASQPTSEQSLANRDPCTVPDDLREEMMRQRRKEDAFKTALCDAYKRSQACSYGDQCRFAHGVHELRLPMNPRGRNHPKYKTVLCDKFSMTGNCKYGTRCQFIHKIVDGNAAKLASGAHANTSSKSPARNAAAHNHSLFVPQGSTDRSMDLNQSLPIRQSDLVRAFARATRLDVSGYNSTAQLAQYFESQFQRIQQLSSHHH
# [3] = Luminescence Cell-Based Dose Confirmation HTS to Identify Inhibitors of Platelet Dense Granule Release. [Related pubchem assays: 1663 (Primary HTS), 1678 (Summary of Project)]; type: functional
# [4] = target: Luciferin 4-monooxygenase (Photinus pyralis, UniProt P08659); assay: inhibition of purified Photinus pyralis luciferase – biochemical, luminescence, dose response (AID 1891)
# Sequence of Luciferin 4-monooxygenase (P08659 whole entry): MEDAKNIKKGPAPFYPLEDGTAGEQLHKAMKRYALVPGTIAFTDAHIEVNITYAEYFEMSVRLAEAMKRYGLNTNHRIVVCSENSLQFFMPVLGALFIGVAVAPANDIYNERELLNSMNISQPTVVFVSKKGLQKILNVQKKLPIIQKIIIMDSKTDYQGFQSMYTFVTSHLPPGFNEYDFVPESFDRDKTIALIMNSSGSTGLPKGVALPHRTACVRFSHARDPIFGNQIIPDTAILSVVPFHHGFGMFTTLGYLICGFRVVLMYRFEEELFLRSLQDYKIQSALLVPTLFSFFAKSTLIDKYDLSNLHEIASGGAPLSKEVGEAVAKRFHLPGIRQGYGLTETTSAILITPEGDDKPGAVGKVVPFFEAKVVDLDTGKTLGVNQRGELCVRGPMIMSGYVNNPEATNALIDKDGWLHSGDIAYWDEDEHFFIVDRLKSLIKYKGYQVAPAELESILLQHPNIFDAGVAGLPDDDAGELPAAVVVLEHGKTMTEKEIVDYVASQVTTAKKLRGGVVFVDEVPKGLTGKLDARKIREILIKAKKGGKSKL
# [5] = tested on: Streptococcus sp. 'group A'; assay: Streptococcus pyogenes SK(-)GAS viability under kanamycin – luminescence, BacTiterGlo, confirmation, counter-screen for streptokinase expression inhibitor project, dose response (AID 1900); type: functional, organism-based
# Streptococcus = assay: GAS UMAA2166 growth inhibition – luminescence, BacTiterGlo, counter-screen for streptokinase expression inhibitor project, dose response (AID 1915); type: functional, organism-based;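 note: potency for reduction of bacterial viability or growth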
# Streptokinase A = target: T3, Streptokinase A (Streptococcus pyogenes serotype M1, UniProt P10520); assay: viability-normalized secreted streptokinase activity reduction – plasminogen activation absorbance, OD405, dose response (AID 1914); type: functional, Streptococcus pyogenes M1 GAS;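 note: secreted streptokinase activity via plasminogen activation per viability signal from cell pellet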
# T3 sequence (P10520 whole entry): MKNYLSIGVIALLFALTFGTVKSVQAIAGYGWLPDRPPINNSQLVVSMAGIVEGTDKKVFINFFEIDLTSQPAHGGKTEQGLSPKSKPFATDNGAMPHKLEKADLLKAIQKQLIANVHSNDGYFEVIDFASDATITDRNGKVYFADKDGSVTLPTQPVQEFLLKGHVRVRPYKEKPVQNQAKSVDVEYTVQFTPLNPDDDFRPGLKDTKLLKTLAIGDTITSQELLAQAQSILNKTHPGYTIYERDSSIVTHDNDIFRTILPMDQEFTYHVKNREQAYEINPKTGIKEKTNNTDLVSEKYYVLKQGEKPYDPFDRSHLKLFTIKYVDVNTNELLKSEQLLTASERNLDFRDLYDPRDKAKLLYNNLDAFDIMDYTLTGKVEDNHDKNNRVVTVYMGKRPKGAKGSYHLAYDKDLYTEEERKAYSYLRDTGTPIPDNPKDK
# [6] = target: T4, Replicative DNA helicase DnaB (Mycobacterium tuberculosis, UniProt P9WMR3); assay: DnaB intein splicing inhibitors, dose response, biochemical, cell-free fluorescence (AID 449749); type: functional
# T4 sequence (P9WMR3 whole entry): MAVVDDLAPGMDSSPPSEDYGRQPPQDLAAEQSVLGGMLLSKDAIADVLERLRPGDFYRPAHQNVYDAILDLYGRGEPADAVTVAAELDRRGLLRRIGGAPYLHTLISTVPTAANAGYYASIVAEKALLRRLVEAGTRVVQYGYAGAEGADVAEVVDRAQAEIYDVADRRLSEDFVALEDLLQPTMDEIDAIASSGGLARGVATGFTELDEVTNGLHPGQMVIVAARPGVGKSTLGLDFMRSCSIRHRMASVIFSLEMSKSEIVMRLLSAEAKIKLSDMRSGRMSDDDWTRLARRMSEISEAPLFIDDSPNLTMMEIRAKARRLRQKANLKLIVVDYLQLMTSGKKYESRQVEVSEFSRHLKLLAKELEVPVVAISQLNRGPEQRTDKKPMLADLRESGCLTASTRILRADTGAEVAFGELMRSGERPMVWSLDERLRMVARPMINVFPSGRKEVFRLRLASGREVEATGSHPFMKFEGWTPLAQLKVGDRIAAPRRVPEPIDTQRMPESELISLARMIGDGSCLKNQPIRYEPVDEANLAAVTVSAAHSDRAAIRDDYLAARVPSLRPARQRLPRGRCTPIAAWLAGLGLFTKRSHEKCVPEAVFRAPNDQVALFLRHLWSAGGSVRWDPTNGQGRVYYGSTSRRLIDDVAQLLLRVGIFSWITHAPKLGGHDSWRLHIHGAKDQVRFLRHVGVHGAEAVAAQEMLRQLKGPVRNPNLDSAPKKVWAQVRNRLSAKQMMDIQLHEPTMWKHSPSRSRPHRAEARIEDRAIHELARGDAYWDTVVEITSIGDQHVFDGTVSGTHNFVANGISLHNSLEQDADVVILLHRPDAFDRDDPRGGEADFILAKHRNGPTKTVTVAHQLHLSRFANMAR
# Protein RecA = target: T5, Protein RecA (Mycobacterium tuberculosis, UniProt P9WHJ3); assay: Fluorescence Cell-Free Homogeneous Dose Retest to Identify Inhibitors of RecA-Intein Splicing Activity. [Related pubchem assays (depositor defined):AID2097, AID2223, AID489010, AID492950]; type: functional
# T5 sequence (P9WHJ3 whole entry): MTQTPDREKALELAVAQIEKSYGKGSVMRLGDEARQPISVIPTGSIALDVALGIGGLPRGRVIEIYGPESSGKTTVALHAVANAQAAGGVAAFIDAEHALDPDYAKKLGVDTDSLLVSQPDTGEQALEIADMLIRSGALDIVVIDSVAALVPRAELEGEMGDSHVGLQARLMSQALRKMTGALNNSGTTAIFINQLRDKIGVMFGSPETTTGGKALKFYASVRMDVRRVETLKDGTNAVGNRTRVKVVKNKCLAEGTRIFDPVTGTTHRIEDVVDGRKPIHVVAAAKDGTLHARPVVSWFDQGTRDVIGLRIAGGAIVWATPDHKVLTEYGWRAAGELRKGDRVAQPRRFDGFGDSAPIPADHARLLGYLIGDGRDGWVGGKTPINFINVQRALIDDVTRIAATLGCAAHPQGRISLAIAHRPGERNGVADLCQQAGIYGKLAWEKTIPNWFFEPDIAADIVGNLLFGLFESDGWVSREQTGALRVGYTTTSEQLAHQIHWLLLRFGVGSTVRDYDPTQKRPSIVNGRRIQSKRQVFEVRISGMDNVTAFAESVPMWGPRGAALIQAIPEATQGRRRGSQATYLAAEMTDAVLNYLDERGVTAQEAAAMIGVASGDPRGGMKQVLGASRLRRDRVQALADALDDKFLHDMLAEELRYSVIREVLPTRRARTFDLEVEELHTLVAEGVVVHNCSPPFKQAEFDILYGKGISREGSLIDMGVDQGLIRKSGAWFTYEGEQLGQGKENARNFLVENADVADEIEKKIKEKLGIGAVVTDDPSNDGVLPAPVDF
# Cytochrome P450 3A4 = Cytochrome P450 3A4 (Homo sapiens, UniProt P08684);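 note: CYP3A4 tested as one member of a cytochrome P450 panel screen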
# Sequence of Cytochrome P450 3A4 (P08684 whole entry): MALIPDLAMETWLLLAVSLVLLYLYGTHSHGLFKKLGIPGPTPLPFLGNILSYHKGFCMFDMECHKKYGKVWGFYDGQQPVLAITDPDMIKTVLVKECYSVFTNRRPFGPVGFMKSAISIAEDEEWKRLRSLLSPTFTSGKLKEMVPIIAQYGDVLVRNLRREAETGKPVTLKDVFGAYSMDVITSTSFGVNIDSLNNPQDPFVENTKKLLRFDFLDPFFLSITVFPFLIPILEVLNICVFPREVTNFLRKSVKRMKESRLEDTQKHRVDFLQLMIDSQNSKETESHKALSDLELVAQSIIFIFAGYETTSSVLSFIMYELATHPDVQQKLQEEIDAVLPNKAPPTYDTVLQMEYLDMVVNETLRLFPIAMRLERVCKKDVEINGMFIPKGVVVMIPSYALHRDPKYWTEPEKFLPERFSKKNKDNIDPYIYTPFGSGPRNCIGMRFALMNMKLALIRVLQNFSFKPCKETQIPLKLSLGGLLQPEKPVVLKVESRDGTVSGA
# [7] = Luminescence Cell-Based Dose Retest to Confirm Inhibitors of Cancer Stem Cells. [Related pubchem assays (depositor defined):AID2717, AID2721]; type: functional; settings: Homo sapiens
compound,measurement,setting,value
CC1(C)CC(=O)C2=C(C1)OC(N)=C(C#N)[C@@H]2c1ccccc1[N+](=O)[O-],EC50,[1],23.9 µM (active)
same,EC50,[2],22.3 µM (inconclusive)
CC1CCCCN1Cc1nc2c(c(=O)n(C)c(=O)n2C)n1CCCc1ccccc1 (stereo not drawn),EC50,[3],> 112 µM (not active)
same,EC50,[4],> 112 µM (not active)
Cc1ccc(C2CC(c3ccccc3OC(F)F)Nc3ncnn32)cc1 (stereo not drawn),EC50,[3],> 112 µM (not active)
same,EC50,[4],> 112 µM (not active)
Cc1cccc(CCNC(=O)c2cc(S(=O)(=O)N3CCOCC3)cn2C)c1,EC50,[3],> 112 µM (not active)
same,EC50,[4],> 112 µM (not active)
CCOc1ccc(NC(=O)CN(C)C(=O)C2CC(=O)N(c3ccc4c(c3)OCCO4)C2)cc1OCC (stereo not drawn),EC50,[5],> 150 µM (not active)
same,EC50,Streptococcus,> 150 µM (not active)
same,EC50,Streptokinase A,> 150 µM (not active)
Cc1cccc(-n2cnc3c(sc4nc(N5CCOCC5)c5c(c43)CCCC5)c2=O)c1,EC50,[3],50 µM (active)
same,EC50,[4],> 112 µM (not active)
N#Cc1c(C#N)c(-c2ccccc2)n(-c2ccc(C(=O)O)cc2)c1N,EC50,[1],> 300 µM (not active)
same,EC50,[2],> 300 µM (not active)
CCOC(=O)Nc1ccc2c(COC(=O)CNS(=O)(=O)c3cccc(Br)c3)cc(=O)oc2c1,EC50,[3],> 112 µM (not active)
same,EC50,[4],> 112 µM (not active)
Oc1nc2ccc(Cl)cc2c(-c2ccccc2)c1SC(=S)N1CCCCC1,AC50,[6],> 380 µM (inactive)
same,EC50,Protein RecA,> 380 µM (inactive)
CCc1ccccc1N1C(=O)NC(=O)/C(=C\c2cc(C)n(C)c2C)C1=O,EC50,[1],> 300 µM (inconclusive)
same,EC50,[2],> 300 µM (not active)
Cc1c(NCc2cc(Cl)cc(Cl)c2O)c(=O)n(-c2ccccc2)n1C,EC50,[5],4.76 µM (active)
same,EC50,Streptococcus,> 150 µM (not active)
same,EC50,Streptokinase A,21.1 µM (active)
COc1ccc(C(=O)NC(=S)NC(C)(C)C)cc1Br,AC50,Cytochrome P450 3A4,14.1 µM (inconclusive)
same,EC50,[3],> 112 µM (not active)
same,EC50,[4],> 112 µM (not active)
CCCc1cc(C(=O)NC2CCCC2)no1,EC50,[3],> 112 µM (not active)
same,EC50,[4],> 112 µM (not active)
Cc1cc(/C=C2/C(=O)NC(=O)N(c3ccc(Br)cc3)C2=O)c(C)n1C,EC50,[1],53 µM (active)
same,EC50,[2],52.2 µM (active)
N#CC1=C(N)C(C#N)(C#N)[C@H](c2ccsc2)[C@H]2COCC=C12,EC50,[1],> 300 µM (not active)
same,EC50,[2],> 300 µM (not active)
O=C(O)c1ccccc1-n1c(-c2ccccc2)cc2c1CCCC2=O,EC50,[1],> 300 µM (not active)
same,EC50,[2],> 300 µM (not active)
CCCc1c(C(=O)NNc2cccc(Cl)c2)cnn1-c1ccccc1,AC50,[6],10.7 µM (active)
same,EC50,Protein RecA,> 380 µM (inactive)
O=C(CSC(=S)N1CCOCC1)c1cc(Br)cc(Br)c1O,EC50,[5],25 µM (active)
same,EC50,Streptococcus,> 150 µM (not active)
same,EC50,Streptokinase A,> 150 µM (not active)
COc1ccc(/C=C2\N=C(C)OC2=O)cc1OC,EC50,[1],> 300 µM (not active)
same,EC50,[2],> 300 µM (not active)
O=C(Cc1ccc(Br)cc1)Nc1nc2ccccc2[nH]1,EC50,[5],> 150 µM (not active)
same,EC50,Streptococcus,> 150 µM (not active)
same,EC50,Streptokinase A,> 150 µM (not active)
Cc1ccccc1C1CC(c2ccccc2OC(F)F)Nc2ncnn21 (stereo not drawn),EC50,[3],> 112 µM (not active)
same,EC50,[4],> 112 µM (not active)
Cc1cccc(-n2ncc3c2CCCC3NC(=O)CCN2Cc3ccccc3C2=O)c1C (stereo not drawn),EC50,[5],> 150 µM (not active)
same,EC50,Streptococcus,> 150 µM (not active)
same,EC50,Streptokinase A,> 150 µM (not active)
CCCc1cc(C(=O)Nc2ccc(C(=O)c3ccc(F)cc3)cc2)n(C)n1,EC50,[5],19.7 µM (active)
same,EC50,Streptococcus,> 150 µM (not active)
same,EC50,Streptokinase A,46.9 µM (active)
Cc1ccccc1CCNC(=O)C1CCN(S(=O)(=O)c2ccc(-n3cnnn3)cc2)CC1,EC50,[3],> 112 µM (not active)
same,EC50,[4],> 112 µM (not active)
COC(=O)c1c(NC(=O)/C=C/C(=O)O)sc(Cc2ccccc2)c1C,AC50,[6],3.23 µM (active)
same,EC50,Protein RecA,7.93 µM (active)
COc1cc(C(c2c(C)n[nH]c2O)c2c(C)n[nH]c2O)cc(OC)c1OC,AC50,[6],0.313 µM (active)
same,EC50,Protein RecA,0.262 µM (active)
Cc1ccc(S(=O)(=O)NCCC(=O)OCC(=O)NC(=O)c2cccn2C)cc1,EC50,[3],> 112 µM (not active)
same,EC50,[4],> 112 µM (not active)
Nc1cccc2c(O)cccc12,AC50,[6],22.1 µM (active)
same,EC50,Protein RecA,15.5 µM (active)
CC(C)=CCC/C(C)=C/Cc1c(O)ccc(C(=O)/C=C/c2ccc(O)cc2)c1O [XANTHOANGELOL],AC50,[6],3.19 µM (active)
same,EC50,[5],1.05 µM (active)
same,EC50,Protein RecA,88.4 µM (active)
same,EC50,Streptococcus,1.68 µM (active)
same,AC50,[7],9.49 µM (active)
